Test results reported in patent US20120088753A1, “PYRROLOPYRIMIDINES AND USED AS KINASE INHIBITORS” (MEDICAL RESEARCH COUNCIL TECHNOLOGY, priority 2009, published 2012).

Biological target: T1, TBK1 (Homo sapiens, UniProt Q9UHD2)
T1 construct: All protein kinases were of human origin and encoded full length proteins, unless indicated otherwise; His6; made in house; host or cells: insect Sf21 cells
T1 sequence (Q9UHD2 1-729): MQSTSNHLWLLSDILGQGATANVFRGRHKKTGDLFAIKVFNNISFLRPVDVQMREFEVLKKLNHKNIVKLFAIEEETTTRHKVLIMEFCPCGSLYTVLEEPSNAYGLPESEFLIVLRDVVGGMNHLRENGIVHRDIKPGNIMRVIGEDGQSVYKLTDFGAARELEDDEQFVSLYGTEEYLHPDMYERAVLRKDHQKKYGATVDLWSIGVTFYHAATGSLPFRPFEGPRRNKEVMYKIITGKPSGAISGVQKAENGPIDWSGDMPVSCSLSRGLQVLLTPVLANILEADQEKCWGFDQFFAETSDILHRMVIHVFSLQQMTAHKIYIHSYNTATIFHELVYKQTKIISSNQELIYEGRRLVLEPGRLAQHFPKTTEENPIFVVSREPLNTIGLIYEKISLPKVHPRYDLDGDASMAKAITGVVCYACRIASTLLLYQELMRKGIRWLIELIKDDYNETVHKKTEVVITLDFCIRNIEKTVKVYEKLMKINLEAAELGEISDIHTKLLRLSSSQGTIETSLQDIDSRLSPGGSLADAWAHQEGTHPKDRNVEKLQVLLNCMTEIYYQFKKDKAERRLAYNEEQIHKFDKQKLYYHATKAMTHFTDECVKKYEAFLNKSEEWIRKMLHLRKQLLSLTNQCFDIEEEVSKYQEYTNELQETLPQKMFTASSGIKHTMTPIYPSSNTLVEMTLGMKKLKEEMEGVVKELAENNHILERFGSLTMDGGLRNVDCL
Test: TBK1 protein kinase assay ([γ-33P]ATP filter-plate, IC50 from 10 concentrations)
Assay type: biochemical
Conditions: 50 μM ATP, peptide substrate 300 μM, 30 min, 21° C.; read-out: Potency score (TBK1 IC50)
Source text: All protein kinases were of human origin and encoded full length proteins, unless indicated otherwise. They were either expressed as glutathione S-transferase (GST) fusion proteins in Escherichia Coli or as hexahistidine (His6)-tagged proteins in insect Sf21 cells. GST fusion proteins were purified by affinity chromatography on glutathione-Sepharose, and His6-tagged proteins on nickel/nitriloacetate-agarose. The procedures for expressing some of the protein kinases used herein have been detailed previously.^8,9 The following sections outline the DNA vectors synthesised and the procedures used to express and purifying protein kinases that have not been reported previously.
The following kinases were expressed in Sf21 cells: Aurora B and Aurora C, extra-cellular signal-regulated kinase 8 (ERK8), microtubule affinity regulating kinase 3 (MARK3), protein kinase Bα[118-480][S473D], protein kinase Bβ (PKBβ[120-481][S474D], 3-phosphoinositide-dependent protein kinase-1 [52-556] (PDK1[52-556], IKKε, TBK1,
All assays (25.5 μl) were carried out at room temperature (21° C.) and were linear with respect to time and enzyme concentration under the conditions used. Assays were performed for 30 min using Multidrop Micro reagent dispensers (Thermo Electron Corporation, Waltham, Mass. 02454, USA) in a 96-well format. The concentration of magnesium acetate in the assays was 10 mM and the [γ-33P] ATP (800 cpm/pmol) was used at 5, 20 or 50 μM as indicated, in order to be at or below the Km for ATP for each enzyme. Protein kinases assayed at 5 μM ATP were: ERK1, ERK8, PKBα, MARK3, Aurora C. Protein kinases assayed at 20 μM ATP were: JNK1, PDK1, CHK1, CHK2, CDK2 and Aurora B. Protein kinases assayed at 50 μM ATP were: MNK2, IKKepsilon and TBK1.
The assays were initiated with MgATP, stopped by addition of 5 μl of 0.5 M orthophosphoric acid and spotted on to P81 filterplates using a unifilter harvester (PerkinElmer, Boston, Mass. 02118, USA). The IC50 values of inhibitors were determined after carrying out assays at 10 different concentrations of each compound.
ERK1 and ERK8 were both assayed against myelin basic protein (MBP, 0.33 mg/ml). MARK3 was assayed against the peptide […] (300 μM), MNK2 against the eIF4E protein (0.5 mg/ml). PKBβ was assayed against the peptide GRPRTSSFAEGKK (30 μM). TBK1 were assayed against ([…]) (300 μM). The substrates used for other protein kinases were described previously.^8,9
Unless stated otherwise, enzymes were diluted in 50 mM Tris/HCl pH 7.5, 0.1 mM EGTA, 1 mg/ml BSA, 0.1% (v/v) 2-mercaptoethanol and assayed in 50 mM Tris/HCl pH 7.5, 0.1 mM EGTA, 0.1% (v/v) 2-mercaptoethanol.

| IC50 [nM] | Structure (SMILES) |
| --- | --- |
| 100 to 1000 | CCCC(=O)NCCCn1ccc2cnc(Nc3ccc(N4CCOCC4)nc3)nc21 [Example 26, N-{3-[2-(6-Morpholin-4-yl-pyridin-3-ylamino)-pyrrolo[2,3-d]pyrimidin-7-yl]-propyl}-butyramide] |
| < 100 | O=C(NCCCn1ccc2cnc(Nc3cccc(F)c3)nc21)C1CCC1 [Example 27, Cyclobutanecarboxylic acid {3-[2-(3-fluoro-phenylamino)-pyrrolo[2,3-d]pyrimidin-7-yl]-propyl}-amide] |
| < 100 | CC(=O)Nc1cccc(Nc2ncc3ccn(CCCNC(=O)C4CCC4)c3n2)c1 [Example 28, Cyclobutanecarboxylic acid {3-[2-(3-acetylamino-phenylamino)-pyrrolo[2,3-d]pyrimidin-7-yl]-propyl}-amide] |
| 100 to 1000 | O=C(NCCCn1ccc2cnc(Nc3cccc(N4CCCC4=O)c3)nc21)C1CCC1 [Example 29, Cyclobutanecarboxylic acid (3-{2-[3-(2-oxo-pyrrolidin-1-yl)-phenylamino]-pyrrolo[2,3-d]pyrimidin-7-yl}-propyl)-amide] |
| < 100 | O=C(NCCCn1ccc2cnc(Nc3ccc(N4CCOCC4)nc3)nc21)C1CCC1 [Example 30, Cyclobutanecarboxylic acid {3-[2-(6-morpholin-4-yl-pyridin-3-ylamino)-pyrrolo[2,3-d]pyrimidin-7-yl]propyl}-amide] |
| 100 to 1000 | CN1CCN(c2ccc(Nc3ncc4ccn(CCCNC(=O)C5CCC5)c4n3)cn2)CC1 [Example 31, Cyclobutanecarboxylic acid (3-{2-[6-(4-methyl-piperazin-1-yl)-pyridin-3-ylamino]-pyrrolo[2,3-d]pyrimidin-7-yl}-propyl)-amide] |
| 100 to 1000 | O=C(NCCCn1ccc2cnc(Nc3cccc(F)c3)nc21)C1CCCC1 [Example 32, Cyclopentanecarboxylic acid {3-[2-(3-fluoro-phenylamino)-pyrrolo[2,3-d]pyrimidin-7-yl]-propyl}-amide] |
| < 100 | CC(=O)Nc1cccc(Nc2ncc3ccn(CCCNC(=O)C4CCCC4)c3n2)c1 [Example 33, Cyclopentanecarboxylic acid {3-[2-(3-acetylamino-phenylamino)-pyrrolo[2,3-d]pyrimidin-7-yl]-propyl}-amide] |
| < 100 | O=C(NCCCn1cc(Cl)c2cnc(Nc3cccc(F)c3)nc21)C1CCC1 [Example 34, Cyclobutanecarboxylic acid {3-[5-chloro-2-(3-fluoro-phenylamino)-pyrrolo[2,3-d]pyrimidin-7-yl]-propyl}-amide] |
| < 100 | O=C(NCCCn1cc(Cl)c2cnc(Nc3ccc(N4CCOCC4)nc3)nc21)C1CCC1 [Example 35, Cyclobutanecarboxylic acid {3-[5-chloro-2-(6-morpholin-4-yl-pyridin-3-ylamino)-pyrrolo[2,3-d]pyrimidin-7-yl]-propyl}-amide] |
| < 100 | O=C(NCCCn1cc(Br)c2cnc(Nc3cccc(F)c3)nc21)C1CCC1 [Example 36, Cyclobutanecarboxylic acid {3-[5-bromo-2-(3-fluoro-phenylamino)-pyrrolo[2,3-d]pyrimidin-7-yl]-propyl}-amide] |
| 100 to 1000 | N#Cc1cn(CCCNC(=O)C2CCC2)c2nc(Nc3cccc(F)c3)ncc12 [Example 37, Cyclobutanecarboxylic acid {3-[5-cyano-2-(3-fluoro-phenylamino)-pyrrolo[2,3-d]pyrimidin-7-yl]-propyl}-amide] |
| 100 to 1000 | O=C(NCCCn1cc(Cl)c2cnc(Nc3cccc(F)c3)nc21)c1cccs1 [Example 38, Thiophene-2-carboxylic acid {3-[5-chloro-2-(3-fluoro-phenylamino)-pyrrolo[2,3-d]pyrimidin-7-yl]-propyl}-amide] |
| < 100 | O=C(NCCCn1ccc2cnc(Nc3ccc(N4CCCC4=O)cc3)nc21)C1CCC1 [Example 39, Cyclobutanecarboxylic acid (3-{2-[4-(2-oxo-pyrrolidin-1-yl)-phenylamino]-pyrrolo[2,3-d]pyrimidin-7-yl}-propyl)-amide] |
| < 100 | O=C(NCCCn1ccc2cnc(Nc3ccc4[nH]ncc4c3)nc21)C1CCC1 [Example 40, Cyclobutanecarboxylic acid {3-[2-(1H-indazol-5-ylamino)-pyrrolo[2,3-d]pyrimidin-7-yl]-propyl}-amide] |
| < 100 | O=C(NCCCn1ccc2cnc(Nc3cccc(-n4cncn4)c3)nc21)C1CCC1 [Example 41, Cyclobutanecarboxylic acid {3-[2-(3-1,2,4-triazol-1-yl-phenylamino)-pyrrolo[2,3-d]pyrimidin-7-yl]-propyl}-amide] |
| < 100 | O=C(NCCCn1ccc2cnc(Nc3cccnc3)nc21)C1CCC1 [Example 43, Cyclobutanecarboxylic acid {3-[2-(pyridin-3-ylamino)-pyrrolo[2,3-d]pyrimidin-7-yl]-propyl}-amide] |
| < 100 | Cn1ncc2cc(Nc3ncc4ccn(CCCNC(=O)C5CCC5)c4n3)cnc21 [Example 44, Cyclobutanecarboxylic acid {3-[2-(1-methyl-1H-pyrazolo[3,4-b]pyridin-5-ylamino)-pyrrolo[2,3-d]pyrimidin-7-yl]-propyl}-amide] |
| < 100 | O=C(NCCCn1ccc2cnc(Nc3ccc4nccn4c3)nc21)C1CCC1 [Example 45, Cyclobutanecarboxylic acid {3-[2-(imidazo[1,2-a]pyridin-6-ylamino)-pyrrolo[2,3-d]pyrimidin-7-yl]-propyl}amide] |
| < 100 | O=C(NCCCn1ccc2cnc(Nc3ccc4nccnc4c3)nc21)C1CCC1 [Example 46, Cyclobutanecarboxylic acid {3-[2-(quinoxalin-6-ylamino)-pyrrolo[2,3-d]pyrimidin-7-yl]-propyl}-amide] |
| < 100 | CCn1cc(Nc2ncc3ccn(CCCNC(=O)C4CCC4)c3n2)cn1 [Example 47, Cyclobutanecarboxylic acid {3-[2-(1-ethyl-1H-pyrazol-4-ylamino)-pyrrolo[2,3-d]pyrimidin-7-yl]-propyl}-amide] |
| < 100 | O=C(NCCCn1ccc2cnc(Nc3cccc(N4CCOCC4)c3)nc21)C1CCC1 [Example 48, Cyclobutanecarboxylic acid {3-[2-(3-morpholin-4-yl-phenylamino)-pyrrolo[2,3-d]pyrimidin-7-yl]-propyl}-amide] |
| < 100 | O=C(NCCCn1ccc2cnc(Nc3cccc(CN4CCCCC4)c3)nc21)C1CCC1 [Example 49, Cyclobutanecarboxylic acid {3-[2-(3-piperidin-1-ylmethyl-phenylamino)-pyrrolo[2,3-d]pyrimidin-7-yl]-propyl}-amide] |
| < 100 | O=C(NCCCn1ccc2cnc(Nc3ccc4ncccc4c3)nc21)C1CCC1 [Example 50, Cyclobutanecarboxylic acid {3-[2-(quinolin-6-ylamino)-pyrrolo[2,3-d]pyrimidin-7-yl]-propyl}-amide] |
| < 100 | CC(C)N1CCC(n2cc(Nc3ncc4ccn(CCCNC(=O)C5CCC5)c4n3)cn2)CC1 [Example 51, Cyclobutanecarboxylic acid (3-{2-[1-(1-isopropyl-piperidin-4-yl)-1H-pyrazol-4-ylamino]-pyrrolo[2,3-d]pyrimidin-7-yl}-propyl)-amide] |
